What was measured:
TTK = TTK (Homo sapiens (Human), UniProt P33981); experiment: TTK enzyme assay (LanthaScreen Eu Kinase Binding); details: arithmetic mean of two or more experiments; for IC50: read-out: TTK enz pIC50 (converted)
JAK1 = JAK1 (Homo sapiens (Human), UniProt P23458); experiment: JAK1 enzyme assay (Z'-LYTE); type: biochemical; details: 75 μM ATP, arithmetic mean of two or more experiments; for IC50: read-out: JAK1 enz pIC50 (converted)
JAK2 = JAK2 (Homo sapiens (Human), UniProt O60674); experiment: JAK2 enzyme assay (Z'-LYTE); type: biochemical; details: 25 μM ATP, arithmetic mean of two or more experiments; for IC50: read-out: JAK2 enz pIC50 (converted)
Sequence of JAK2 (O60674 whole entry): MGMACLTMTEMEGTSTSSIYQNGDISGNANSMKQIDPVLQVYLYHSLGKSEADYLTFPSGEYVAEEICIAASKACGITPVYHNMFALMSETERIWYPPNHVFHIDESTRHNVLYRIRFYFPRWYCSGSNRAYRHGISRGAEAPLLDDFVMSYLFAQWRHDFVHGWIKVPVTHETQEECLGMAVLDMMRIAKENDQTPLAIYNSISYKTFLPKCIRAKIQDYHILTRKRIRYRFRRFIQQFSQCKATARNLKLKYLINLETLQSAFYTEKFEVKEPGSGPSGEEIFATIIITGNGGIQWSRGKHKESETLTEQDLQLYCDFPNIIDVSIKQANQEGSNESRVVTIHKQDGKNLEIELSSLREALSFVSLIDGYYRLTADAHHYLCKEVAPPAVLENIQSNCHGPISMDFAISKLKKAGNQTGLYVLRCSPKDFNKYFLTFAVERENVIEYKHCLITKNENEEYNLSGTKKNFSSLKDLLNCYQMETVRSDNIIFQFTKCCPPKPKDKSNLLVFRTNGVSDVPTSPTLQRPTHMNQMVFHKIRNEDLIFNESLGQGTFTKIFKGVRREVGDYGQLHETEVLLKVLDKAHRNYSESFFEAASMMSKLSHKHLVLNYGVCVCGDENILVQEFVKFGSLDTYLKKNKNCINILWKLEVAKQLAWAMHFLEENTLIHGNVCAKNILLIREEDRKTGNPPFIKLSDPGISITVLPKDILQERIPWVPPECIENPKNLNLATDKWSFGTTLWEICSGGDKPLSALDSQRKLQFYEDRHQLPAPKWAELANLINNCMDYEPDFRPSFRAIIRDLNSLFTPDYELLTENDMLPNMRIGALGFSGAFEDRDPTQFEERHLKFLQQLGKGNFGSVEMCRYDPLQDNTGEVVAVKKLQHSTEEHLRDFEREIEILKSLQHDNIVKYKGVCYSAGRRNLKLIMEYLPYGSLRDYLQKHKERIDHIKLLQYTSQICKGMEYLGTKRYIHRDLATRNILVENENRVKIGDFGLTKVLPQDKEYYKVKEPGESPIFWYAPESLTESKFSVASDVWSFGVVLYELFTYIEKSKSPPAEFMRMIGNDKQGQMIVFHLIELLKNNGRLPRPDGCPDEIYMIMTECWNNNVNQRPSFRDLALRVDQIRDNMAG

JAK3 = JAK3 (Homo sapiens (Human), UniProt P52333); experiment: JAK3 enzyme assay (Z'-LYTE); type: biochemical; details: 10 μM ATP, arithmetic mean of two or more experiments; for IC50: read-out: JAK3 enz pIC50 (converted)
Sequence of JAK3 (P52333 whole entry): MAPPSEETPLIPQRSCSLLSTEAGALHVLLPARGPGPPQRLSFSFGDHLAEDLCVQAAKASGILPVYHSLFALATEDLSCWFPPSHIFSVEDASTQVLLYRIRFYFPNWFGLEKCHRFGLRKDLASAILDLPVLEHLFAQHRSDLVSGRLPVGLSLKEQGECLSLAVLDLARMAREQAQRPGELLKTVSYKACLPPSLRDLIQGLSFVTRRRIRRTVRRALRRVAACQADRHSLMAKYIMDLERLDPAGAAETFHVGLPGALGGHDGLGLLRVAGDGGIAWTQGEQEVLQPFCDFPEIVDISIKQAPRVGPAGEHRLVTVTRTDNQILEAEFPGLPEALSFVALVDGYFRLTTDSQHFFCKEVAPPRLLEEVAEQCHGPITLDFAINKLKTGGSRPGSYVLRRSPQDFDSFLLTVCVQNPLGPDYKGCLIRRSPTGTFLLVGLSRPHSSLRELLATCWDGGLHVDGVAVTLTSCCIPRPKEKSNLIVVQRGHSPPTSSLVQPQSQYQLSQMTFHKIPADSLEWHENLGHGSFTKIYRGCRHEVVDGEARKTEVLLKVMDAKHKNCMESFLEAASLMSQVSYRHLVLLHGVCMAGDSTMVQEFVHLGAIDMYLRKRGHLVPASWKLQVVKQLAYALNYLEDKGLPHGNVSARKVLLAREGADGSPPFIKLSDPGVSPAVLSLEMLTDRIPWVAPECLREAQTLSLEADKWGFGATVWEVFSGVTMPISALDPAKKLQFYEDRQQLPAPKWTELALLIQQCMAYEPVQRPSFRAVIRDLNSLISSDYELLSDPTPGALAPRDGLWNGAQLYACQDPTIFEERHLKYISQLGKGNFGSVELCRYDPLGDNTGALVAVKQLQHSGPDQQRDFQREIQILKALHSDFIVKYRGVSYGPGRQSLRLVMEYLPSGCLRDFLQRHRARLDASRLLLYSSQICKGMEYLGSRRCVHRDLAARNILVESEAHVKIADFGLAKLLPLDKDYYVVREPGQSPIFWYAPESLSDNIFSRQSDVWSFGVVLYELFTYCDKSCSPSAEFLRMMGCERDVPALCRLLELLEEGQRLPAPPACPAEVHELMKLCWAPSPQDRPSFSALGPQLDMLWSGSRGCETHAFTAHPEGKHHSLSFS

AURKA (Aurora A) = AURKA (Aurora A) (Homo sapiens (Human), UniProt O14965); experiment: Aurora-A enzyme assay (Z'-LYTE); type: biochemical; details: 10 μM ATP, arithmetic mean of two or more experiments; for IC50: read-out: AurA enz pIC50 (converted)
Sequence of AURKA (Aurora A) (O14965 whole entry): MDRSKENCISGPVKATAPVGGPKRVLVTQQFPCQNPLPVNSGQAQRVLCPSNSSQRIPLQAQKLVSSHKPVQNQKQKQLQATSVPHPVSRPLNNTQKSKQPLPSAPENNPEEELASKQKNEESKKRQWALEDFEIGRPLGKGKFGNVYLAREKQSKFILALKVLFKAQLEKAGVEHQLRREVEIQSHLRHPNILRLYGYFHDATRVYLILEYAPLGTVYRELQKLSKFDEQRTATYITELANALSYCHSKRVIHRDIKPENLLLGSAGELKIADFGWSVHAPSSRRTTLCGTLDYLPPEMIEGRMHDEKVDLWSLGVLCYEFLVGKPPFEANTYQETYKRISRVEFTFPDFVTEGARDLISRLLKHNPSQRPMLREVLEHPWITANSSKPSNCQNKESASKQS

AURKB (Aurora B) = AURKB (Aurora B) (Homo sapiens (Human), UniProt Q96GD4); experiment: Aurora-B enzyme assay (Z'-LYTE); type: biochemical; details: 75 μM ATP, arithmetic mean of two or more experiments; for IC50: read-out: AurB enz pIC50 (converted)
Sequence of AURKB (Aurora B) (Q96GD4 whole entry): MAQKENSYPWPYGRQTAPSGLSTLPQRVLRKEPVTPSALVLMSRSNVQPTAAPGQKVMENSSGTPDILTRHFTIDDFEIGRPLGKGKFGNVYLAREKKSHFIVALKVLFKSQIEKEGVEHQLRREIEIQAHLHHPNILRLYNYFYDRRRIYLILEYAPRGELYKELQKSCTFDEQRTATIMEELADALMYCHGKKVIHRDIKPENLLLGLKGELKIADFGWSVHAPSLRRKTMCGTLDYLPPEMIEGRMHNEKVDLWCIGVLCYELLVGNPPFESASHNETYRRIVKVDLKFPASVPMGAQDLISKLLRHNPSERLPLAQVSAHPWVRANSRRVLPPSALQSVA

Sequence of TTK (P33981 whole entry): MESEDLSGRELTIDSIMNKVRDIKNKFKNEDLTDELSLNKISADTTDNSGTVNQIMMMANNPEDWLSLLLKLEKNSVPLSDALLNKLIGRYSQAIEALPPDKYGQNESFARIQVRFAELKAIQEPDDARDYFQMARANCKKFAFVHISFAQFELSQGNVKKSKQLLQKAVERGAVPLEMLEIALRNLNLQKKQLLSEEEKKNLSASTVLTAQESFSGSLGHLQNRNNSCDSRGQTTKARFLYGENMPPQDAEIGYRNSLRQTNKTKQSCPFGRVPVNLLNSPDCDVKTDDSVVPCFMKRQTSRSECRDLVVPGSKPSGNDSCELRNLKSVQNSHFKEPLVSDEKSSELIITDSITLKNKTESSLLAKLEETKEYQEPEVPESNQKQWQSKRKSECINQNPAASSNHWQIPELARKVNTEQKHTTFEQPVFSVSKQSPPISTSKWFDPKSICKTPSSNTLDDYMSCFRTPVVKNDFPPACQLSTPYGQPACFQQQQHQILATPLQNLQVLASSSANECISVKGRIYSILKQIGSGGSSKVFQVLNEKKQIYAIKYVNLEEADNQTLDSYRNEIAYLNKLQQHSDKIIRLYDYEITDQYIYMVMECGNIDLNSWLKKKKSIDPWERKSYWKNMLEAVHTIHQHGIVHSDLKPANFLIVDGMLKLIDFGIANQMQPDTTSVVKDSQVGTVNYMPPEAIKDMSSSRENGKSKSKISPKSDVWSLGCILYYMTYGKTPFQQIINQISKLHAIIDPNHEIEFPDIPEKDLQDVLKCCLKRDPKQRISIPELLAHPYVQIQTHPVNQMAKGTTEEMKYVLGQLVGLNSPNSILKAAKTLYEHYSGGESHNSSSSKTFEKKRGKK
Sequence of JAK1 (P23458 whole entry): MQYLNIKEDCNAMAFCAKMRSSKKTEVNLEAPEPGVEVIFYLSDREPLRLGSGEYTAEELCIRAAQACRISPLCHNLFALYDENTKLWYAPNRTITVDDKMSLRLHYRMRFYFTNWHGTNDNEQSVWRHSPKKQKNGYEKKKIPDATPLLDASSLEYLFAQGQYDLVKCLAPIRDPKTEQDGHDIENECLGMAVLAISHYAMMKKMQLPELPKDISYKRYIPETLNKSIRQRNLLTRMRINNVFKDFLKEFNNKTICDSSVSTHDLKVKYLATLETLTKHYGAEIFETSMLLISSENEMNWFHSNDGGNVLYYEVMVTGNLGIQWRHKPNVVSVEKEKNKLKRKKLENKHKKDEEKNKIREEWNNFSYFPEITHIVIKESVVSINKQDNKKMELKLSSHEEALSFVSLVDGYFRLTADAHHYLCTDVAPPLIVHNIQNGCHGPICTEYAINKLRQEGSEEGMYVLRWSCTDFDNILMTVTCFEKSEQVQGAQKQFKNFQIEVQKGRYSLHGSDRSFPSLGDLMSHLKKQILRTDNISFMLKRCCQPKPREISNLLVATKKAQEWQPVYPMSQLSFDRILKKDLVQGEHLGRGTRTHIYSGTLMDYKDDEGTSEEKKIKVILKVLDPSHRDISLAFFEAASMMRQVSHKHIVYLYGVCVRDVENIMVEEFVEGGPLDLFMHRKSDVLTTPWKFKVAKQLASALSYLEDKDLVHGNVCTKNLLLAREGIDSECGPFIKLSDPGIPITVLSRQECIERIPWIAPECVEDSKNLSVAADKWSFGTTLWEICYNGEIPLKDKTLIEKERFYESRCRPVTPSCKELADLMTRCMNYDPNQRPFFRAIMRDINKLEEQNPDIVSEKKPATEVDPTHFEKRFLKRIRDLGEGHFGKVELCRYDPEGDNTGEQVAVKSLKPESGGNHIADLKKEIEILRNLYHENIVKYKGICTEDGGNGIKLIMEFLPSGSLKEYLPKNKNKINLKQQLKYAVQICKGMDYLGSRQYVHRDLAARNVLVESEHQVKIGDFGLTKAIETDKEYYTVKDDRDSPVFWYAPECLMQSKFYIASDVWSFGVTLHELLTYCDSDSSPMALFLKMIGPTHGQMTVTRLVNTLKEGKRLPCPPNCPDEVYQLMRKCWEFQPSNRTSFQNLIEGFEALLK

SMILES | TTK enz pIC50 (TTK) | JAK1 enz pIC50 (JAK1) | JAK2 enz pIC50 (JAK2) | JAK3 enz pIC50 (JAK3) | AurA enz pIC50 (AURKA (Aurora A)) | AurB enz pIC50 (AURKB (Aurora B)) | IC50 (TTK) | IC50 (JAK1) | IC50 (JAK2) | IC50 (JAK3) | IC50 (AURKA (Aurora A)) | IC50 (AURKB (Aurora B))
Cc1cc2ncccc2cc1Nc1ncc2c(n1)n([C@@H]1CCNC[C@@H]1F)c(=O)n2C [Example 38, 9-((3S,4R)-3-fluoropiperidin-4-yl)-7-methyl-2-((7-methylquinolin-6-yl)amino)-7,9-dihydro-8H-purin-8-one] | <5.1 | <5 | <5 | <5 | <5 | <5 | – | – | – | – | – | –
Cc1cc2ncccc2cc1Nc1ncc2c(n1)n([C@H]1CC[C@@](C)(N)CC1)c(=O)n2C [Example 39, 9-((1s,4s)-4-amino-4-methylcyclohexyl)-7-methyl-2-((7-methylquinolin-6-yl)amino)-7,9-dihydro-8H-purin-8-one] | – | – | – | – | – | – | 3980 nM | > 10 µM | > 10 µM | > 10 µM | > 10 µM | > 10 µM
Cc1cc2ncccc2cc1Nc1ncc2c(n1)n([C@H]1CC[C@](C)(N)CC1)c(=O)n2C [Example 40, 9-((1r,4r)-4-amino-4-methylcyclohexyl)-7-methyl-2-((7-methylquinolin-6-yl)amino)-7,9-dihydro-8H-purin-8-one] | – | – | – | – | – | – | 1580 nM | > 10 µM | > 10 µM | > 7.94 µM | > 10 µM | > 10 µM
Cc1cc2ncccc2cc1Nc1ncc2c(n1)n([C@@H]1CCN(C)C[C@@H]1F)c(=O)n2C [Example 46, 9-((3S,4R)-3-fluoro-1-methylpiperidin-4-yl)-7-methyl-2-((7-methylquinolin-6-yl)amino)-7,9-dihydro-8H-purin-8-one] | 5.4 | <5 | <5 | <5 | <5 | <5 | – | – | – | – | – | –
Cc1cc2ncccc2cc1Nc1ncc2c(n1)n(C1CCN(C3COC3)CC1)c(=O)n2C [Example 47, 7-methyl-2-((7-methylquinolin-6-yl)amino)-9-(1-(oxetan-3-yl)piperidin-4-yl)-7,9-dihydro-8H-purin-8-one] | 5.8 | <5 | <5 | <5 | <5 | <5 | – | – | – | – | – | –
Cc1cc2ncccc2cc1Nc1ncc2c(n1)n(C1CCN(CCO)CC1)c(=O)n2C [Example 48, 9-(1-(2-hydroxyethyl)piperidin-4-yl)-7-methyl-2-((7-methylquinolin-6-yl)amino)-7,9-dihydro-8H-purin-8-one] | 5.9 | <5 | <5 | <5 | <5 | <5 | – | – | – | – | – | –
COCCN1CCC(n2c(=O)n(C)c3cnc(Nc4cc5cccnc5cc4C)nc32)CC1 [Example 49, 9-(1-(2-methoxyethyl)piperidin-4-yl)-7-methyl-2-((7-methylquinolin-6-yl)amino)-7,9-dihydro-8H-purin-8-one] | 5.7 | <5 | <5 | <5 | <5 | <5 | – | – | – | – | – | –
CCN1CCC(n2c(=O)n(C)c3cnc(Nc4cc5cccnc5cc4C)nc32)CC1 [Example 50, 9-(1-ethylpiperidin-4-yl)-7-methyl-2-((7-methylquinolin-6-yl)amino)-7,9-dihydro-8H-purin-8-one] | 5.2 | <5 | <5 | <5 | <5 | <5 | – | – | – | – | – | –
CC(=O)N1CCC(n2c(=O)n(C)c3cnc(Nc4cc5cccnc5cc4C)nc32)CC1 [Example 51, 9-(1-acetylpiperidin-4-yl)-7-methyl-2-((7-methylquinolin-6-yl)amino)-7,9-dihydro-8H-purin-8-one] | 6.4 | <5 | <5 | <5 | <5 | <5 | – | – | – | – | – | –
